Source: ChEMBL document CHEMBL1148995, “Antitumor agents from bohemic acid complex, VI. Schaunardimycin” (J Nat Prod, 1984)

How the values were obtained:
L1210 [1] = assay: Antitumor activity against mouse L1210 cells implanted in CDF1 mouse assessed as median survival time at 12.8 mg/kg, ip single dose on day 1; format: functional; conditions: route intraperitoneal
L1210 [2] = assay: Antitumor activity against mouse L1210 cells implanted in CDF1 mouse assessed as median survival time at 6.4 mg/kg, ip single dose on day 1; format: functional; conditions: route intraperitoneal
L1210 [3] = assay: Antitumor activity against mouse L1210 cells implanted in CDF1 mouse assessed as median survival time at 3.2 mg/kg, ip single dose on day 1; format: functional; conditions: route intraperitoneal
L1210 [4] = assay: Antitumor activity against mouse L1210 cells implanted in CDF1 mouse assessed as median survival time at 1.6 mg/kg, ip single dose on day 1; format: functional; conditions: route intraperitoneal
L1210 [5] = assay: Antitumor activity against mouse L1210 cells implanted in CDF1 mouse assessed as median survival time at 0.8 mg/kg, ip single dose on day 1; format: functional; conditions: route intraperitoneal
L1210 [6] = assay: Antitumor activity against mouse L1210 cells implanted in CDF1 mouse assessed as median survival time at 0.4 mg/kg, ip single dose on day 1; format: functional; conditions: route intraperitoneal
L1210 [7] = assay: Antitumor activity against mouse L1210 cells implanted in CDF1 mouse assessed as median survival time at 0.2 mg/kg, ip single dose on day 1; format: functional; conditions: route intraperitoneal
L1210 [8] = assay: Antitumor activity against mouse L1210 cells implanted in CDF1 mouse assessed as median survival time at 6.4 mg/kg, ip qd for 1 to 5 days; format: functional; conditions: route intraperitoneal
L1210 [9] = assay: Antitumor activity against mouse L1210 cells implanted in CDF1 mouse assessed as median survival time at 3.2 mg/kg, ip qd for 1 to 5 days; format: functional; conditions: route intraperitoneal
L1210 [10] = assay: Antitumor activity against mouse L1210 cells implanted in CDF1 mouse assessed as median survival time at 1.6 mg/kg, ip qd for 1 to 5 days; format: functional; conditions: route intraperitoneal
L1210 [11] = assay: Antitumor activity against mouse L1210 cells implanted in CDF1 mouse assessed as median survival time at 0.8 mg/kg, ip qd for 1 to 5 days; format: functional; conditions: route intraperitoneal
L1210 [12] = assay: Antitumor activity against mouse L1210 cells implanted in CDF1 mouse assessed as median survival time at 0.4 mg/kg, ip qd for 1 to 5 days; format: functional; conditions: route intraperitoneal
L1210 [13] = assay: Antitumor activity against mouse L1210 cells implanted in CDF1 mouse assessed as median survival time at 0.2 mg/kg, ip qd for 1 to 5 days; format: functional; conditions: route intraperitoneal
L1210 [14] = assay: Antitumor activity against mouse L1210 cells implanted in CDF1 mouse at 12.8 mg/kg, ip single dose on day 1 relative to control; format: functional; conditions: route intraperitoneal
L1210 [15] = assay: Antitumor activity against mouse L1210 cells implanted in CDF1 mouse at 6.4 mg/kg, ip single dose on day 1 relative to control; format: functional; conditions: route intraperitoneal
L1210 [16] = assay: Antitumor activity against mouse L1210 cells implanted in CDF1 mouse at 3.2 mg/kg, ip single dose on day 1 relative to control; format: functional; conditions: route intraperitoneal
L1210 [17] = assay: Antitumor activity against mouse L1210 cells implanted in CDF1 mouse at 1.6 mg/kg, ip single dose on day 1 relative to control; format: functional; conditions: route intraperitoneal
L1210 [18] = assay: Antitumor activity against mouse L1210 cells implanted in CDF1 mouse at 0.8 mg/kg, ip single dose on day 1 relative to control; format: functional; conditions: route intraperitoneal
L1210 [19] = assay: Antitumor activity against mouse L1210 cells implanted in CDF1 mouse at 0.4 mg/kg, ip single dose on day 1 relative to control; format: functional; conditions: route intraperitoneal
L1210 [20] = assay: Antitumor activity against mouse L1210 cells implanted in CDF1 mouse at 0.2 mg/kg, ip single dose on day 1 relative to control; format: functional; conditions: route intraperitoneal
L1210 [21] = assay: Antitumor activity against mouse L1210 cells implanted in CDF1 mouse at 6.4 mg/kg, ip qd for 1 to 5 days relative to control; format: functional; conditions: route intraperitoneal
L1210 [22] = assay: Antitumor activity against mouse L1210 cells implanted in CDF1 mouse at 3.2 mg/kg, ip qd for 1 to 5 days relative to control; format: functional; conditions: route intraperitoneal
L1210 [23] = assay: Antitumor activity against mouse L1210 cells implanted in CDF1 mouse at 1.6 mg/kg, ip qd for 1 to 5 days relative to control; format: functional; conditions: route intraperitoneal
L1210 [24] = assay: Antitumor activity against mouse L1210 cells implanted in CDF1 mouse at 0.8 mg/kg, ip qd for 1 to 5 days relative to control; format: functional; conditions: route intraperitoneal
L1210 [25] = assay: Antitumor activity against mouse L1210 cells implanted in CDF1 mouse at 0.4 mg/kg, ip qd for 1 to 5 days relative to control; format: functional; conditions: route intraperitoneal
Mus musculus [26] = assay: Toxicity in mouse L1210 cells implanted CDF1 mouse assessed as average weight gain at 12.8 mg/kg, ip single dose on day 1; format: organism-based; parameters: dose 12.8 mg/kg, route intraperitoneal; conditions: in vivo
Mus musculus [27] = assay: Toxicity in mouse L1210 cells implanted CDF1 mouse assessed as average weight gain at 6.4 mg/kg, ip single dose on day 1; format: organism-based; parameters: dose 6.4 mg/kg, route intraperitoneal; conditions: in vivo
Mus musculus [28] = assay: Toxicity in mouse L1210 cells implanted CDF1 mouse assessed as average weight gain at 3.2 mg/kg, ip single dose on day 1; format: organism-based; parameters: dose 3.2 mg/kg, route intraperitoneal; conditions: in vivo
Mus musculus [29] = assay: Toxicity in mouse L1210 cells implanted CDF1 mouse assessed as average weight gain at 1.6 mg/kg, ip single dose on day 1; format: organism-based; parameters: dose 1.6 mg/kg, route intraperitoneal; conditions: in vivo
Mus musculus [30] = assay: Toxicity in mouse L1210 cells implanted CDF1 mouse assessed as average weight gain at 0.8 mg/kg, ip single dose on day 1; format: organism-based; parameters: dose 0.8 mg/kg, route intraperitoneal; conditions: in vivo
Mus musculus [31] = assay: Toxicity in mouse L1210 cells implanted CDF1 mouse assessed as average weight gain at 0.4 mg/kg, ip single dose on day 1; format: organism-based; parameters: dose 0.4 mg/kg, route intraperitoneal; conditions: in vivo
Mus musculus [32] = assay: Toxicity in mouse L1210 cells implanted CDF1 mouse assessed as average weight gain at 0.2 mg/kg, ip single dose on day 1; format: organism-based; parameters: dose 0.2 mg/kg, route intraperitoneal; conditions: in vivo
Mus musculus [33] = assay: Toxicity in mouse L1210 cells implanted CDF1 mouse assessed as average weight gain at 6.4 mg/kg, ip qd for 1 to 5 days; format: organism-based; parameters: dose 6.4 mg/kg, route intraperitoneal; conditions: in vivo
Mus musculus [34] = assay: Toxicity in mouse L1210 cells implanted CDF1 mouse assessed as average weight gain at 3.2 mg/kg, ip qd for 1 to 5 days; format: organism-based; parameters: dose 3.2 mg/kg, route intraperitoneal; conditions: in vivo
Mus musculus [35] = assay: Toxicity in mouse L1210 cells implanted CDF1 mouse assessed as average weight gain at 1.6 mg/kg, ip qd for 1 to 5 days; format: organism-based; parameters: dose 1.6 mg/kg, route intraperitoneal; conditions: in vivo
Mus musculus [36] = assay: Toxicity in mouse L1210 cells implanted CDF1 mouse assessed as average weight gain at 0.8 mg/kg, ip qd for 1 to 5 days; format: organism-based; parameters: dose 0.8 mg/kg, route intraperitoneal; conditions: in vivo
Mus musculus [37] = assay: Toxicity in mouse L1210 cells implanted CDF1 mouse assessed as average weight gain at 0.4 mg/kg, ip qd for 1 to 5 days; format: organism-based; parameters: dose 0.4 mg/kg, route intraperitoneal; conditions: in vivo
Mus musculus [38] = assay: Toxicity in mouse L1210 cells implanted CDF1 mouse assessed as average weight gain at 0.2 mg/kg, ip qd for 1 to 5 days; format: organism-based; parameters: dose 0.2 mg/kg, route intraperitoneal; conditions: in vivo
Mus musculus [39] = assay: Toxicity in mouse L1210 cells implanted CDF1 mouse assessed as survivors on day 5 at 12.8 mg/kg, ip single dose on day 1; format: organism-based; parameters: dose 12.8 mg/kg, route intraperitoneal; conditions: in vivo
Mus musculus [40] = assay: Toxicity in mouse L1210 cells implanted CDF1 mouse assessed as survivors on day 5 at 6.4 mg/kg, ip single dose on day 1; format: organism-based; parameters: dose 6.4 mg/kg, route intraperitoneal; conditions: in vivo
Mus musculus [41] = assay: Toxicity in mouse L1210 cells implanted CDF1 mouse assessed as survivors on day 5 at 3.2 mg/kg, ip single dose on day 1; format: organism-based; parameters: dose 3.2 mg/kg, route intraperitoneal; conditions: in vivo
Mus musculus [42] = assay: Toxicity in mouse L1210 cells implanted CDF1 mouse assessed as survivors on day 5 at 1.6 mg/kg, ip single dose on day 1; format: organism-based; parameters: dose 1.6 mg/kg, route intraperitoneal; conditions: in vivo
Mus musculus [43] = assay: Toxicity in mouse L1210 cells implanted CDF1 mouse assessed as survivors on day 5 at 0.8 mg/kg, ip single dose on day 1; format: organism-based; parameters: dose 0.8 mg/kg, route intraperitoneal; conditions: in vivo
Mus musculus [44] = assay: Toxicity in mouse L1210 cells implanted CDF1 mouse assessed as survivors on day 5 at 0.4 mg/kg, ip single dose on day 1; format: organism-based; parameters: dose 0.4 mg/kg, route intraperitoneal; conditions: in vivo
Mus musculus [45] = assay: Toxicity in mouse L1210 cells implanted CDF1 mouse assessed as survivors on day 5 at 3.2 mg/kg, ip qd for 1 to 5 days; format: organism-based; parameters: dose 3.2 mg/kg, route intraperitoneal; conditions: in vivo
Mus musculus [46] = assay: Toxicity in mouse L1210 cells implanted CDF1 mouse assessed as survivors on day 5 at 1.6 mg/kg, ip qd for 1 to 5 days; format: organism-based; parameters: dose 1.6 mg/kg, route intraperitoneal; conditions: in vivo
Mus musculus [47] = assay: Toxicity in mouse L1210 cells implanted CDF1 mouse assessed as survivors on day 5 at 0.8 mg/kg, ip qd for 1 to 5 days; format: organism-based; parameters: dose 0.8 mg/kg, route intraperitoneal; conditions: in vivo
Mus musculus [48] = assay: Toxicity in mouse L1210 cells implanted CDF1 mouse assessed as survivors on day 5 at 0.4 mg/kg, ip qd for 1 to 5 days; format: organism-based; parameters: dose 0.4 mg/kg, route intraperitoneal; conditions: in vivo
Mus musculus [49] = assay: Toxicity in mouse L1210 cells implanted CDF1 mouse assessed as survivors on day 5 at 0.2 mg/kg, ip qd for 1 to 5 days; format: organism-based; parameters: dose 0.2 mg/kg, route intraperitoneal; conditions: in vivo
Mus musculus [50] = assay: Toxicity in mouse L1210 cells implanted CDF1 mouse assessed as median survival time at 25.6 mg/kg, ip single dose on day 1; format: organism-based; parameters: dose 25.6 mg/kg, route intraperitoneal; conditions: in vivo
L1210 [51] = assay: Antitumor activity against mouse L1210 cells implanted in CDF1 mouse at 0.2 mg/kg, ip qd for 1 to 5 days relative to control; format: functional; conditions: route intraperitoneal

`CC[C@@]1(O)C[C@H](O[C@H]2C[C@H](N(C)C)[C@H](O[C@H]3C[C@H](O)[C@H](O)[C@H](C)O3)[C@H](C)O2)c2c(cc3c(c2O)C(=O)c2c(O)ccc(O)c2C3=O)[C@H]1C(=O)OC` [MUSETTAMYCIN] gave an MST (L1210 [1]) of 10 days, an MST (L1210 [2]) of 9.5 days and an MST (L1210 [3]) of 8 days. For the same molecule, the MST (L1210 [4]) was 8 days, the MST (L1210 [5]) was 7 days and the MST (L1210 [6]) was 6.5 days. For the same molecule, the MST (L1210 [7]) was 6 days, the MST (L1210 [8]) was 6 days and the MST (L1210 [9]) was 10 days. It also gave an MST (L1210 [10]) of 9.5 days, an MST (L1210 [11]) of 8 days and an MST (L1210 [12]) of 7 days. It also gave an MST (L1210 [13]) of 6.5 days, a T/C (L1210 [14]) of 167% and a T/C (L1210 [15]) of 158%. For the same molecule, the T/C (L1210 [16]) was 133%, the T/C (L1210 [17]) was 133% and the T/C (L1210 [18]) was 117%. For the same molecule, the T/C (L1210 [19]) was 108%, the T/C (L1210 [20]) was 100% and the T/C (L1210 [21]) was 100%. For the same molecule, the T/C (L1210 [22]) was 167%, the T/C (L1210 [23]) was 158% and the T/C (L1210 [24]) was 133%. For the same molecule, the T/C (L1210 [25]) was 117%, the Activity (Mus musculus [26]) was -2.3 g and the Activity (Mus musculus [27]) was 0.3 g. The Activity (Mus musculus [28]) was 0.8 g, the weight gain (Mus musculus [29]) was 0.7 g and the weight gain (Mus musculus [30]) was 2.6 g. It also gave a weight gain (Mus musculus [31]) of 2.7 g, a weight gain (Mus musculus [32]) of 2.7 g and an Activity (Mus musculus [33]) of -1.9 g. It also gave an Activity (Mus musculus [34]) of -1.2 g, a weight gain (Mus musculus [35]) of 0.3 g and a weight gain (Mus musculus [36]) of 1.4 g. The weight gain (Mus musculus [37]) was 2.3 g, the weight gain (Mus musculus [38]) was 2.8 g and the Activity (Mus musculus [39]) was “Active”. For the same molecule, the Activity (Mus musculus [40]) was “Active”, the Activity (Mus musculus [41]) was “Active” and the Activity (Mus musculus [42]) was “Active”. For the same molecule, the Activity (Mus musculus [43]) was “Active”, the Activity (Mus musculus [44]) was “Active” and the Activity (Mus musculus [45]) was “Active”. For the same molecule, the Activity (Mus musculus [46]) was “Active”, the Activity (Mus musculus [47]) was “Active” and the Activity (Mus musculus [48]) was “Active”. The Activity (Mus musculus [49]) was “Active”, the Activity (Mus musculus [50]) was “Toxic” and the T/C (L1210 [51]) was 117%.
